Tests used:
B. globigii spores [1] = experiment: Spore decontamination followed immediately by dilution and plating (CFU titer); type: cell-based, Bacillus globigii; conditions: for reduction of spores: 1% surfactant in water, >10^7 spores/ml, apparently independent of pH; for sporicidal (bacterial) activity: in the presence of moderate applied heat
Protocol: In the examples, below, three representative quaternary ammonium surfactants were tested for decontamination of Bacillus spores. The three exemplified quaternary ammonium surfactants are hexadecyltrimethylammonium chloride, dicocodimethylammonium chloride, and alkyldimethylbenzylammonium chloride. All three quaternary ammonium surfactants were dissolved in water and tested over a pH range. Testing occurred with and without applied heat. All experiments were performed with at least 3-4 replicates with many experiments reproduced numerous times.
(§1) Bacillus spores were suspended in the appropriate solvent at a concentration of 2 mg spores/ml (approximately 2×10^8 spores/ml). Starting volume of 1.125 ml of spores at 2 mg/ml. 3 or 4 spore aliquots of 50 μl per aliquot were removed. These aliquots were serially diluted in 1×PBS and plated on LB or TSA agar plates. This is a control step that gave the spore titer or colony-forming units (CFUs) at Time=0 minutes (T0). The appropriate decontamination solution (2× concentration) was aliquoted into each of 3 or 4 Eppendorf tubes with 200 ul per tube. Then 200 ul of spores were added and mixed to give a final concentration of 1× decontamination solution and 1 mg spores/ml. The spores in decontamination solution were then mixed and incubated for specific time periods and temperatures. A typical incubation was in a room temperature (25° C.) water bath for 30 (or 60) minutes. There was no agitation during the incubation period in order to mimic real world situations. Aliquots of spores were removed after 30 (or 60) minutes. The aliquots (3 or 4 replicates) were serially diluted in 1×PBS and plated on LB or TSA agar plates. This gave a CFU at Time=30 minutes (T30), which is the titer of live spores after the decontamination test. After removing the aliquots at the 30-minute time point, test (or control) samples were then immediately incubated in a 70° C. water bath for another 30 minutes. The samples were then serially diluted and plated on to LB or TSA agar plates to determine the titer after the 70° C. incubation. The entire dilution series from 0.1 through 0.000001 dilutions were plated. An optional wash assay was employed to confirm that the surfactant was killing spores rather than behaving as a bacterostatic agent. The wash assay included centrifuging and washing spores after decontamination. 100 ul of spores (after decontamination) were added to 200 ul of water and centrifuged at 10,000×g for one minute at room temperature. The supernatant was removed and saved. 10% of the supernatant volume was plated and titered as a wash control, to determine if live spores were being removed in the supernatant. Spore pellets were suspended in 1 ml of water and then pelleted at 10,000×g for one minute at room temperature. The supernatant was removed and saved. Spore pellets were washed again with 1 ml of water. Then spore pellets were suspended, serially diluted and plated. This removed the surfactant prior to plating and confirmed results that were bactericidal rather than bacterostatic.

B. globigii spores [2] = experiment: Optional wash assay (surfactant removed by centrifuging and washing spores before plating); type: cell-based, Bacillus globigii; conditions: between pH5 and pH7 at 70° C.; for reduction of spore decontamination (wash assay): data not shown
Protocol: as §1
An optional wash assay was employed to verify the results (data not shown). […]

[3] = 30 minutes at 25° C. (room temperature)

Row | Molecule | reduction of spores (B. globigii spores [1]; [3]) | reduction of spores (B. globigii spores [1]; 30 minutes at 70° C., complete) | sporicidal (bacterial) activity (B. globigii spores [1]) | spores alive out of the original 10-100 million spores (wash assay) (B. globigii spores [2]) | reduction of spore decontamination (wash assay) (B. globigii spores [2])
1 | alkyldimethylbenzylammonium chloride | approximately 1 order-of-magnitude | greater than 7 orders-of-magnitude | strong sporicidal (bacterial) activity | – | –
2 | CCCCCCCCCCCCCCCC[N+](C)(C)C.[Cl-] [hexadecyltrimethylammonium chloride] | approximately 1 order-of-magnitude | greater than 7 orders-of-magnitude | strong sporicidal (bacterial) activity | less than 10 thousand | over 4 orders-of-magnitude
3 | dicocodimethylammonium chloride | approximately 1 order-of-magnitude | greater than 7 orders-of-magnitude | strong sporicidal (bacterial) activity | less than 10 thousand | over 4 orders-of-magnitude
